The compounds below were run against human ERK-2 (Mitogen Activated Kinase 1) (Homo sapiens (Human), UniProt P28482) (assay: ERK-2 Enzymatic Assay). Conditions: human ERK-2 enzyme 5 nM, 25 μM ATP, S/T17 peptide substrate; isomer = configuration of CR2R3.
Format: biochemical
How it was run: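 Recombinant human ERK-2 (aa 8-360, N-terminal 6-His, E. coli) with 3-fold serially diluted compound. Per-well rates from linear fits converted to percent of control; IC50 by four-parameter fit.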

Sequence of human ERK-2 (Mitogen Activated Kinase 1) (P28482 8-360): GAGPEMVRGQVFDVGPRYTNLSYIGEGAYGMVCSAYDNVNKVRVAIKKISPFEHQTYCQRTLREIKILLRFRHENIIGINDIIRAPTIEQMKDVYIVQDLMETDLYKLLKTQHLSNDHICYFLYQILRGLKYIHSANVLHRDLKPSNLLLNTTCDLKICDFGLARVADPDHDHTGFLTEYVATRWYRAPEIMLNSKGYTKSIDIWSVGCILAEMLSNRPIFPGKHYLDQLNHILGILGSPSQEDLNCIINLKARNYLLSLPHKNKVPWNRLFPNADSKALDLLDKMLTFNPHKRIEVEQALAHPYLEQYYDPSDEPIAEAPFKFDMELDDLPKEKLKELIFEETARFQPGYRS

Row | SMILES | IC50 [nM]
1 | COc1ccc(C[C@H]2CC(=O)N(C)c3cc(-c4ccnc(Nc5ccnn5C)n4)cc4nnc2n34)cc1 [(S) I-62, 9-(4-methoxybenzyl)-6-methyl-4-(2-((1-methyl-1H-pyrazol-5-yl)amino)pyrimidin-4-yl)-8,9-dihydro-1,2,2a^1,6-tetraazabenzo[cd]azulen-7(6H)-one] | 44
2 | CCC[C@H]1CC(=O)N(C)c2cc(-c3ccnc(Nc4ccnn4C)n3)cc3nnc1n23 [(S) I-64, 6-methyl-4-(2-((1-methyl-1H-pyrazol-5-yl)amino)pyrimidin-4-yl)-9-propyl-8,9-dihydro-1,2,2a^1,6-tetraazabenzo[cd]azulen-7(6H)-one] | 0.149
3 | CN1C(=O)C[C@@H](C2CC2)c2nnc3cc(-c4ccnc(Nc5ccnn5C)n4)cc1n23 [(S) I-65, 9-cyclopropyl-6-methyl-4-(2-((1-methyl-1H-pyrazol-5-yl)amino)pyrimidin-4-yl)-8,9-dihydro-1,2,2a^1,6-tetraazabenzo[cd]azulen-7(6H)-one] | 119
4 | Cn1nccc1Nc1nccc(-c2cc3n4c(nnc4c2)[C@@H](Oc2ccc(F)cc2)CCO3)n1 [(S) I-66, 4-(9-(4-fluorophenoxy)-8,9-dihydro-7H-6-oxa-1,2,2a^1-triazabenzo[cd]azulen-4-yl)-N-(1-methyl-1H-pyrazol-5-yl)pyrimidin-2-amine] | 0.02
5 | CN1C(=O)C[C@@H](CC(F)(F)F)c2nnc3cc(-c4ccnc(Nc5ccnn5C)n4)cc1n23 [(S) I-71, 6-methyl-4-(2-((1-methyl-1H-pyrazol-5-yl)amino)pyrimidin-4-yl)-9-(2,2,2-trifluoroethyl)-8,9-dihydro-1,2,2a^1,6-tetraazabenzo[cd]azulen-7(6H)-one] | 189
6 | COc1ccc(C[C@H]2CC(=O)N(C)c3cc(-c4ccnc(Nc5ccnn5C)c4)cc4nnc2n34)c(F)c1 [(S) I-74, 9-(2-fluoro-4-methoxybenzyl)-6-methyl-4-(2-((1-methyl-1H-pyrazol-5-yl)amino)pyridin-4-yl)-8,9-dihydro-1,2,2a^1,6-tetraazabenzo[cd]azulen-7(6H)-one] | 2.85
7 | CC(C)C[C@H]1CC(=O)N(C)c2cc(-c3ccnc(Nc4ccnn4C)c3)cc3nnc1n23 [(S) I-75, 9-isobutyl-6-methyl-4-(2-((1-methyl-1H-pyrazol-5-yl)amino)pyridin-4-yl)-8,9-dihydro-1,2,2a^1,6-tetraazabenzo[cd]azulen-7(6H)-one] | 718
8 | Cn1nccc1Nc1nccc(-c2cc3n4c(nnc4c2)[C@@H](Oc2cncc(Cl)c2)CCO3)n1 [(S) I-77, 4-(9-((5-chloropyridin-3-yl)oxy)-8,9-dihydro-7H-6-oxa-1,2,2a^1-triazabenzo[cd]azulen-4-yl)-N-(1-methyl-1H-pyrazol-5-yl)pyrimidin-2-amine] | < 0.02
9 | Cn1nccc1Nc1cc(-c2cc3n4c(nnc4c2)[C@@H](Oc2cncc(Cl)c2)CCO3)ccn1 [(S) I-78, 4-(9-((5-chloropyridin-3-yl)oxy)-8,9-dihydro-7H-6-oxa-1,2,2a^1-triazabenzo[cd]azulen-4-yl)-N-(1-methyl-1H-pyrazol-5-yl)pyridin-2-amine] | < 0.02
10 | Cn1nccc1Nc1nccc(-c2cc3n4c(nnc4c2)[C@H](Cc2ccc(F)c(Cl)c2)CO3)n1 [(S) I-82, 4-(3-(3-chloro-4-fluorobenzyl)-3,4-dihydro-5-oxa-1,2,2a^1-triazaacenaphthylen-7-yl)-N-(1-methyl-1H-pyrazol-5-yl)pyrimidin-2-amine] | 12.4
11 | CN1C(=O)C[C@H](Cc2ccc(Cl)cn2)c2nnc3cc(-c4ccnc(Nc5ccnn5C)n4)cc1n23 [(S) I-84, 9-((5-chloropyridin-2-yl)methyl)-6-methyl-4-(2-((1-methyl-1H-pyrazol-5-yl)amino)pyrimidin-4-yl)-8,9-dihydro-1,2,2a^1,6-tetraazabenzo[cd]azulen-7(6H)-one] | 32.7
12 | COc1ccc(C[C@H]2CC(=O)N(C)c3cc(-c4ccnc(Nc5ccnn5C)n4)cc4nnc2n34)c(F)c1 [(S) I-85, 9-(2-fluoro-4-methoxybenzyl)-6-methyl-4-(2-((1-methyl-1H-pyrazol-5-yl)amino)pyrimidin-4-yl)-8,9-dihydro-1,2,2a^1,6-tetraazabenzo[cd]azulen-7(6H)-one] | 25.9

Continued, values first:

Row | IC50 [nM] | SMILES
13 | 1000 | CC(C)[C@@H]1CC(=O)N(C)c2cc(-c3ccnc(Nc4ccnn4C)c3)cc3nnc1n23 [(S) I-87, 9-isopropyl-6-methyl-4-(2-((1-methyl-1H-pyrazol-5-yl)amino)pyridin-4-yl)-8,9-dihydro-1,2,2a^1,6-tetraazabenzo[cd]azulen-7(6H)-one]
14 | 6.36 | Cn1nccc1Nc1nccc(-c2cc3n4c(nnc4c2)[C@H](Cc2cccc(Cl)c2)CO3)n1 [(S) I-88, 4-(3-(3-chlorobenzyl)-3,4-dihydro-5-oxa-1,2,2a^1-triazaacenaphthylen-7-yl)-N-(1-methyl-1H-pyrazol-5-yl)pyrimidin-2-amine]
15 | 2.31 | Cn1nccc1Nc1cc(-c2cc3n4c(nnc4c2)[C@H](Cn2cc(C(F)(F)F)cn2)CCO3)ccn1 [(S) I-89, N-(1-methyl-1H-pyrazol-5-yl)-4-(9-((4-(trifluoromethyl)-1H-pyrazol-1-yl)methyl)-8,9-dihydro-7H-6-oxa-1,2,2a^1-triazabenzo[cd]azulen-4-yl)pyridin-2-amine]
16 | < 0.02 | Cn1nccc1Nc1nccc(-c2cc3n4c(nnc4c2)[C@@H](Oc2ccccc2)CCO3)n1 [(S) I-90, N-(1-methyl-1H-pyrazol-5-yl)-4-(9-phenoxy-8,9-dihydro-7H-6-oxa-1,2,2a^1-triazabenzo[cd]azulen-4-yl)pyrimidin-2-amine]
17 | 0.035 | Cn1nccc1Nc1nccc(-c2cc3n4c(nnc4c2)[C@@H](Oc2cncc(F)c2)CCO3)n1 [(S) I-91, 4-(9-((5-fluoropyridin-3-yl)oxy)-8,9-dihydro-7H-6-oxa-1,2,2a^1-triazabenzo[cd]azulen-4-yl)-N-(1-methyl-1H-pyrazol-5-yl)pyrimidin-2-amine]
18 | 18.2 | Cc1cc(C[C@@H]2CCOc3cc(-c4ccnc(Nc5ccnn5C)n4)cc4nnc2n34)on1 [(S) I-93, N-(1-methyl-1H-pyrazol-5-yl)-4-(9-((3-methylisoxazol-5-yl)methyl)-8,9-dihydro-7H-6-oxa-1,2,2a^1-triazabenzo[cd]azulen-4-yl)pyrimidin-2-amine]
19 | 0.794 | COc1cccc(C[C@@H]2COc3cc(-c4ccnc(Nc5ccnn5C)c4)cc4nnc2n34)c1 [(S) I-97, 4-(3-(3-methoxybenzyl)-3,4-dihydro-5-oxa-1,2,2a^1-triazaacenaphthylen-7-yl)-N-(1-methyl-1H-pyrazol-5-yl)pyridin-2-amine]
20 | 0.025 | Cn1nccc1Nc1nccc(-c2cc3n4c(nnc4c2)[C@@H](CCC(F)(F)F)CCO3)n1 [(S) I-102, N-(1-methyl-1H-pyrazol-5-yl)-4-(9-(3,3,3-trifluoropropyl)-8,9-dihydro-7H-6-oxa-1,2,2a^1-triazabenzo[cd]azulen-4-yl)pyrimidin-2-amine]
21 | 0.026 | CCC[C@H]1CCOc2cc(-c3ccnc(Nc4ccnn4C)c3)cc3nnc1n23 [(S) I-103, N-(1-methyl-1H-pyrazol-5-yl)-4-(9-propyl-8,9-dihydro-7H-6-oxa-1,2,2a^1-triazabenzo[cd]azulen-4-yl)pyridin-2-amine]
22 | < 0.02 | CCC[C@H]1CCOc2cc(-c3ccnc(Nc4ccnn4C)n3)cc3nnc1n23 [(S) I-104, N-(1-methyl-1H-pyrazol-5-yl)-4-(9-propyl-8,9-dihydro-7H-6-oxa-1,2,2a^1-triazabenzo[cd]azulen-4-yl)pyrimidin-2-amine]

— patent US9867833B2, “Serine/threonine kinase inhibitors” (GENENTECH, INC., priority 2013, dated 2018)
